According to publication PMC10364322, “Evaluation of chronic drug-induced electrophysiological and cytotoxic effects using human-induced pluripotent stem cell-derived cardiomyocytes (hiPSC-CMs)” (Frontiers in Pharmacology, 2023):
Where two headings read alike, the source gives them in different places.

Tested on: hiPSC-CMs (iCell-Cardiomyocytes^2)
Method in brief: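 Monolayers of hiPSC-CMs on fibronectin-coated MEA plates, 50 K/well, kept at 37°C, 5% CO2; compounds added in 0.1% final DMSO after 5-min baseline. Field potential and impedance parameters expressed as mean ± SD percent change from baseline; arrhythmic events noted; cytotoxicity fluorescence normalized to DMSO, Kruskal-Wallis.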

In the case of `CC(C)(Sc1cc(C(C)(C)C)c(O)c(C(C)(C)C)c1)Sc1cc(C(C)(C)C)c(O)c(C(C)(C)C)c1` [Probucol], the “BR (beating rate), % change from baseline” value (from here on “BR (beating rate), % change”) (0.3 µM, 2h) is reported as 0±1%, the “Beating below threshold, number of observations/total well numbers” value (0.3 µM, 2h) is reported as 0/5 and the “Cessation of beating, number of observations/total well numbers” value (0.3 µM, 2h) is reported as 0/5. For the same compound, the “EAD, number of observations/total well numbers” value (0.3 µM, 2h) was 0/5, the “FPD (field-potential duration), % change from baseline” value (0.3 µM, 2h) was 2.5±1.9% and the “FPDc (field-potential duration corrected by beat-rate), % change from baseline” value (shortened to “FPDc … % change from baseline”) (0.3 µM, 2h) was 2.6±1.7%. The “Flat T-wave-like, number of observations/total well numbers” value (0.3 µM, 2h) was 0/5, the “BR (beating rate), % change” value (0.3 µM, 24h) was 4±2% and the “Beating below threshold, number of observations/total well numbers” value (0.3 µM, 24h) was 0/5. For the same compound, the “Cessation of beating, number of observations/total well numbers” value (0.3 µM, 24h) was 0/5, the “EAD, number of observations/total well numbers” value (0.3 µM, 24h) was 0/5 and the “FPD (field-potential duration), % change from baseline” value (0.3 µM, 24h) was 2.5±6.9%. For the same compound, the “FPDc … % change from baseline” value (0.3 µM, 24h) was 3.8±6.8%, the “Flat T-wave-like, number of observations/total well numbers” value (0.3 µM, 24h) was 1/5 and the “BR (beating rate), % change” value (0.3 µM, 48h) was -1±1%. For the same compound, the “Beating below threshold, number of observations/total well numbers” value (0.3 µM, 48h) was 0/5, the “Cessation of beating, number of observations/total well numbers” value (0.3 µM, 48h) was 0/5 and the “EAD, number of observations/total well numbers” value (0.3 µM, 48h) was 0/5. For the same compound, the “FPD (field-potential duration), % change from baseline” value (0.3 µM, 48h) was 5.1±4.5%, the “FPDc … % change from baseline” value (0.3 µM, 48h) was 4.5±4.4% and the “Flat T-wave-like, number of observations/total well numbers” value (0.3 µM, 48h) was 0/5. The “BR (beating rate), % change” value (0.3 µM, 72h) was -6±3%, the “Beating below threshold, number of observations/total well numbers” value (0.3 µM, 72h) was 0/5 and the “Cessation of beating, number of observations/total well numbers” value (0.3 µM, 72h) was 0/5. The “EAD, number of observations/total well numbers” value (0.3 µM, 72h) was 0/5, the “FPD (field-potential duration), % change from baseline” value (0.3 µM, 72h) was 1.8±4.6% and the “FPDc … % change from baseline” value (0.3 µM, 72h) was -0.2±4.7%. The “Flat T-wave-like, number of observations/total well numbers” value (0.3 µM, 72h) was 0/5, the “BR (beating rate), % change” value (0.3 µM, 96h) was 0±7% and the “Beating below threshold, number of observations/total well numbers” value (0.3 µM, 96h) was 0/5. The “Cessation of beating, number of observations/total well numbers” value (0.3 µM, 96h) was 0/5, the “EAD, number of observations/total well numbers” value (0.3 µM, 96h) was 0/5 and the “FPD (field-potential duration), % change from baseline” value (0.3 µM, 96h) was 2.4±5.7%. The “FPDc … % change from baseline” value (0.3 µM, 96h) was 2.7±6.2%, the “Flat T-wave-like, number of observations/total well numbers” value (0.3 µM, 96h) was 0/5 and the “BR (beating rate), % change” value (1 µM, 2h) was 0±1%. The “Beating below threshold, number of observations/total well numbers” value (1 µM, 2h) was 0/4, the “Cessation of beating, number of observations/total well numbers” value (1 µM, 2h) was 0/4 and the “EAD, number of observations/total well numbers” value (1 µM, 2h) was 0/4. For the same compound, the “FPD (field-potential duration), % change from baseline” value (1 µM, 2h) was 0.8±4.5%, the “FPDc … % change from baseline” value (1 µM, 2h) was 1.1±4.5% and the “Flat T-wave-like, number of observations/total well numbers” value (1 µM, 2h) was 0/4. For the same compound, the “BR (beating rate), % change” value (1 µM, 24h) was 6±1%, the “Beating below threshold, number of observations/total well numbers” value (1 µM, 24h) was 0/4 and the “Cessation of beating, number of observations/total well numbers” value (1 µM, 24h) was 0/4. The “EAD, number of observations/total well numbers” value (1 µM, 24h) was 0/4, the “FPD (field-potential duration), % change from baseline” value (1 µM, 24h) was 13±11.4% and the “FPDc … % change from baseline” value (1 µM, 24h) was 15.1±11.7%. The “Flat T-wave-like, number of observations/total well numbers” value (1 µM, 24h) was 0/4, the “BR (beating rate), % change” value (1 µM, 48h) was 0±2% and the “Beating below threshold, number of observations/total well numbers” value (1 µM, 48h) was 0/4. The “Cessation of beating, number of observations/total well numbers” value (1 µM, 48h) was 0/4, the “EAD, number of observations/total well numbers” value (1 µM, 48h) was 0/4 and the “FPD (field-potential duration), % change from baseline” value (1 µM, 48h) was 12.6±11.7%. For the same compound, the “FPDc … % change from baseline” value (1 µM, 48h) was 12.5±11.6%, the “Flat T-wave-like, number of observations/total well numbers” value (1 µM, 48h) was 0/4 and the “BR (beating rate), % change” value (1 µM, 72h) was 0±5%. For the same compound, the “Beating below threshold, number of observations/total well numbers” value (1 µM, 72h) was 0/4, the “Cessation of beating, number of observations/total well numbers” value (1 µM, 72h) was 0/4 and the “EAD, number of observations/total well numbers” value (1 µM, 72h) was 0/4. The “FPD (field-potential duration), % change from baseline” value (1 µM, 72h) was 8.9±8.5%, the “FPDc … % change from baseline” value (1 µM, 72h) was 8.8±8.8% and the “Flat T-wave-like, number of observations/total well numbers” value (1 µM, 72h) was 0/4. For the same compound, the “BR (beating rate), % change” value (1 µM, 96h) was 2±3%, the “Beating below threshold, number of observations/total well numbers” value (1 µM, 96h) was 0/4 and the “Cessation of beating, number of observations/total well numbers” value (1 µM, 96h) was 0/4. The “EAD, number of observations/total well numbers” value (1 µM, 96h) was 0/4, the “FPD (field-potential duration), % change from baseline” value (1 µM, 96h) was 9.2±9.9% and the “FPDc … % change from baseline” value (1 µM, 96h) was 10.3±10.9%. For the same compound, the “Flat T-wave-like, number of observations/total well numbers” value (1 µM, 96h) was 0/4.
